Experimental data: ChEMBL document CHEMBL2407058, “Design, Synthesis, and Antiplasmodial Activity of Hybrid Compounds Based on (2R,3S)-N-Benzoyl-3-phenylisoserine” (ACS Med Chem Lett, 2013)

How the values were obtained:
[1] = test system: Plasmodium falciparum; assay: Antiplasmodial activity against erythrocytic stage of chloroquine-resistant Plasmodium falciparum IndoChina W2 infected in human A positive RBC after 48 hrs by [3H]hypoxanthine incorporation assay; format: functional, organism-based
[2] = test system: Plasmodium falciparum; assay: Ratio of dihydroartemisinin IC50 to compound IC50 for erythrocytic stage of chloroquine-resistant Plasmodium falciparum IndoChina W2; format: functional
[3] = Selectivity index, ratio of IC50 for rat L6 cells to IC50 for erythrocytic stage of chloroquine-resistant Plasmodium falciparum IndoChina W2; format: toxicity, cell-based; conditions: read-out: Ratio IC50
[4] = test system: L6; assay: Cytotoxicity against rat L6 cells after 70 hrs by Alamar Blue assay; format: cell-based; conditions: L6, 70 h
[5] = test system: Plasmodium falciparum; assay: Antiplasmodial activity against erythrocytic stage of multidrug-resistant Plasmodium falciparum Thailand K1 infected in human A positive RBC after 48 hrs by [3H]hypoxanthine incorporation assay; format: functional, organism-based

| Structure (SMILES) | IC50 [1] [nM] | Ratio IC50 [2] | selectivity ratio [3] | IC50 [4] [nM] | IC50 [5] [nM] |
| --- | --- | --- | --- | --- | --- |
| OCCNc1ccnc2cc(Cl)ccc12 | 550 | – | – | – | – |
| C[C@H]1[C@H](OC(=O)[C@H](O)[C@@H](NC(=O)c2ccccc2)c2ccccc2)O[C@@H]2O[C@@]3(C)CC[C@H]4[C@H](C)CC[C@@H]1[C@@]24OO3 | 5 | 3 | 206 | 1030 | 0.7 |
| OCc1cccc(Nc2ccnc3cc(Cl)ccc23)c1 | 300 | – | 70.4 | 21100 | 300 |
| OCc1ccccc1Nc1ccnc2cc(Cl)ccc12 | 40 | – | – | – | – |
| CC(=O)O[C@@H](C(=O)O[C@@H]1O[C@@H]2O[C@@]3(C)CC[C@H]4[C@H](C)CC[C@@H]([C@H]1C)[C@@]24OO3)[C@@H](NC(=O)c1ccccc1)c1ccccc1 | 5 | 3 | 166 | 830 | 0.5 |
| O=C(N[C@@H](c1ccccc1)[C@@H](O)C(=O)OCCCNc1ccnc2cc(Cl)ccc12)c1ccccc1 | 130 | – | – | – | – |
| O=C(N[C@@H](c1ccccc1)[C@@H](O)C(=O)NCc1cn(CCNc2ccnc3cc(Cl)ccc23)nn1)c1ccccc1 | 2710 | – | 31.6 | 85600 | 1110 |
| OCCCNc1ccnc2cc(Cl)ccc12 | 410 | – | – | – | – |
| O=C(N[C@@H](c1ccccc1)[C@@H](O)C(=O)OCCNc1ccnc2cc(Cl)ccc12)c1ccccc1 | 390 | – | – | – | – |
| O=C(N[C@@H](c1ccccc1)[C@@H](O)C(=O)NCCCNc1ccnc2cc(Cl)ccc12)c1ccccc1 | 480 | – | 59 | 28300 | 1000 |
| [N-]=[N+]=NCc1cccc(Nc2ccnc3cc(Cl)ccc23)c1 | 550 | – | 139 | 76600 | 1110 |
| O=C(N[C@@H](c1ccccc1)[C@@H](O)C(=O)NCCNc1ccnc2cc(Cl)ccc12)c1ccccc1 | 560 | – | 27 | 15100 | 360 |
| CC(=O)O[C@@H](C(=O)OCCCNc1ccnc2cc(Cl)ccc12)[C@@H](NC(=O)c1ccccc1)c1ccccc1 | 160 | – | 151 | 24200 | 220 |
| C[C@H]1[C@@H](O)O[C@@H]2O[C@@]3(C)CC[C@H]4[C@H](C)CC[C@@H]1[C@@]24OO3 (mixture of isomers) [ARTENIMOL] | 3 | – | 243 | 730 | 1.8 |
| O=C(N[C@@H](c1ccccc1)[C@@H](O)C(=O)NCc1cn(Cc2ccccc2Nc2ccnc3cc(Cl)ccc23)nn1)c1ccccc1 | 1050 | – | 28.6 | 30100 | 3240 |
| C[C@@H]1CC[C@H]2[C@@H](C)C(=O)O[C@@H]3O[C@@]4(C)CC[C@@H]1[C@]32OO4 [ARTEMISININ] | 15 | – | – | – | 3.2 |
| [N-]=[N+]=NCCCNc1ccnc2cc(Cl)ccc12 | 170 | – | 55.8 | 9480 | 330 |
| O=C(N[C@@H](c1ccccc1)[C@@H](O)C(=O)O)c1ccccc1 | > 10000 | – | – | > 100000 | > 10000 |
| COc1cc([C@@H]2c3cc4c(cc3[C@H](O)[C@H]3COC(=O)[C@H]23)OCO4)cc(OC)c1OC [PODOFILOX] | – | – | – | 20 | – |
| [N-]=[N+]=NCc1ccccc1Nc1ccnc2cc(Cl)ccc12 | 220 | – | – | – | – |
| O=C(N[C@@H](c1ccccc1)[C@@H](O)C(=O)NCc1cn(Cc2cccc(Nc3ccnc4cc(Cl)ccc34)c2)nn1)c1ccccc1 | 280 | – | 242 | 67900 | 2440 |
| CC(=O)O[C@@H](C(=O)OCCNc1ccnc2cc(Cl)ccc12)[C@@H](NC(=O)c1ccccc1)c1ccccc1 | 220 | – | 114 | 25200 | 250 |
| O=C(N[C@@H](c1ccccc1)[C@@H](O)C(=O)NCc1cn(CCCNc2ccnc3cc(Cl)ccc23)nn1)c1ccccc1 | 1690 | – | 52.2 | 88200 | 390 |
| [N-]=[N+]=NCCNc1ccnc2cc(Cl)ccc12 | 290 | – | – | – | – |
| CC(=O)O[C@@H](C(=O)O)[C@@H](NC(=O)c1ccccc1)c1ccccc1 | > 10000 | – | – | > 100000 | > 10000 |
